Data published in patent US20260355165A1, “2,3,4,9-TETRAHYDRO-1H-PYRIDO[3,4-B]INDOLE DERIVATIVES AS ESTROGEN RECEPTOR MODULATORS FOR THE TREATMENT OF CANCER” (Olema Pharmaceuticals, Inc., priority 2022, published 2026).

target: T1, estrogen receptor (Homo sapiens, UniProt P03372); assay: AP assay (alkaline phosphatase activity in ECC-1 cells), agonist mode (absence of E2) and antagonist mode (presence of 500 pM E2); assay type: cell-based; details: 3 days, AP activity normalized to 500 pM E2 alone, agonist and antagonist mode combined
T1 construct: endogenous in cells; host or cells: ECC-1 cells
T1 sequence (P03372 1-595): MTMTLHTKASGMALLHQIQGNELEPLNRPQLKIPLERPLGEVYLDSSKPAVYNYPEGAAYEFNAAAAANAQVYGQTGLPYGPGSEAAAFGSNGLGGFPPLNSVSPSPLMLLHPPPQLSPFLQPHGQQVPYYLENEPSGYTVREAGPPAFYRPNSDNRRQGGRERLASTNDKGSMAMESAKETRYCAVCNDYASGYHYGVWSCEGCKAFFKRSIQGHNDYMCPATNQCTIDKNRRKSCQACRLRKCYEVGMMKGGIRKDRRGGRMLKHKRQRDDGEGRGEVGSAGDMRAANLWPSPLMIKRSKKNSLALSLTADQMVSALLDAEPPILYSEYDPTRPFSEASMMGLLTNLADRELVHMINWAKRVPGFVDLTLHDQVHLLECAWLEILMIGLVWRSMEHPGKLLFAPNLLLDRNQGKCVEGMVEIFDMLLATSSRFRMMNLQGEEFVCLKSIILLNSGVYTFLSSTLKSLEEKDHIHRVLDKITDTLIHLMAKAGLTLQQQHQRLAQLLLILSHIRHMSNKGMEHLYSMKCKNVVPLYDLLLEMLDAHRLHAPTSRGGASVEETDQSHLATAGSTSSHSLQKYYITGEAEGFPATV
Outline: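 ECC-1 cells in hormone-depleted medium treated with compounds for 3 days, without E2 (agonist mode) or with 500 pM E2 (antagonist mode). AP activity read at 405 nm after p-nitrophenyl phosphate substrate, 40 min at 42 °C. Signal normalized to 500 pM E2 alone.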

SMILES | Activity (estrogen receptor modulation, e.g., agonism and antagonism)
C[C@@H]1Cc2c([nH]c3ccccc23)[C@@H](c2ccc3[nH]c(CN4CC(C#N)C4)cc3c2)N1CC(C)(C)F [Compound I-50, 1-[[5-[(1R,3R)-2-(2-fluoro-2-methyl-propyl)-3-methyl-1,3,4,9-tetrahydropyrido[3,4-b]indol-1-yl]-1H-indol-2-yl]methyl]azetidine-3-carbonitrile] | + (estrogen receptor agonism having (i) at least 80% increase in the E2-normalized signal in the AP assay (agonist mode) and (ii) no more than 80% reduction in the E2-normalized signal in the AP assay (antagonist mode))
COCC1CN(Cc2cc3cc([C@@H]4c5[nH]c6ccccc6c5C[C@@H](C)N4CC(C)(C)F)ccc3[nH]2)C1 [Compound I-51, (1R,3R)-2-(2-fluoro-2-methyl-propyl)-1-[2-[[3-(methoxymethyl)azetidin-1-yl]methyl]-1H-indol-5-yl]-3-methyl-1,3,4,9-tetrahydropyrido[3,4-b]indole] | + (estrogen receptor agonism having (i) at least 80% increase in the E2-normalized signal in the AP assay (agonist mode) and (ii) no more than 80% reduction in the E2-normalized signal in the AP assay (antagonist mode))
C[C@@H]1Cc2c([nH]c3ccccc23)[C@@H](c2ccc3[nH]c(CN4CC5(CC(F)C5)C4)cc3c2)N1CC(C)(C)F [Compound I-52, (1R,3R)-1-[2-[(6-fluoro-2-azaspiro[3.3]heptan-2-yl)methyl]-1H-indol-5-yl]-2-(2-fluoro-2-methyl-propyl)-3-methyl-1,3,4,9-tetrahydropyrido[3,4-b]indole] | ++ (estrogen receptor antagonism having (i) between 10% and 80% increase in the E2-normalized signal in the AP assay (agonist mode) and (ii) between 10% and 80% reduction in the E2-normalized signal in the AP assay (antagonist mode))
C[C@@H]1Cc2c([nH]c3ccccc23)[C@@H](c2ccc3[nH]c(CN4CC5(CC(O)C5)C4)cc3c2)N1CC(C)(C)F [Compound I-53, 2-[[5-[(1R,3R)-2-(2-fluoro-2-methyl-propyl)-3-methyl-1,3,4,9-tetrahydropyrido[3,4-b]indol-1-yl]-1H-indol-2-yl]methyl]-2-azaspiro[3.3]heptan-6-ol] | + (estrogen receptor agonism having (i) at least 80% increase in the E2-normalized signal in the AP assay (agonist mode) and (ii) no more than 80% reduction in the E2-normalized signal in the AP assay (antagonist mode))
C[C@@H]1Cc2c([nH]c3ccccc23)[C@@H](c2ccc3[nH]c(CN4CC5(COC5)C4)cc3c2)N1CC(C)(C)F [Compound I-54, 6-[[5-[(1R,3R)-2-(2-fluoro-2-methyl-propyl)-3-methyl-1,3,4,9-tetrahydropyrido[3,4-b]indol-1-yl]-1H-indol-2-yl]methyl]-2-oxa-6-azaspiro[3.3]heptane] | + (estrogen receptor agonism having (i) at least 80% increase in the E2-normalized signal in the AP assay (agonist mode) and (ii) no more than 80% reduction in the E2-normalized signal in the AP assay (antagonist mode))
C[C@@H]1Cc2c([nH]c3ccccc23)[C@@H](c2ccc3cc(CN4CC(CF)C4)[nH]c3c2)N1CC(C)(C)F [Compound I-55, (1R,3R)-1-[2-[[3-(fluoromethyl)azetidin-1-yl]methyl]-1H-indol-6-yl]-2-(2-fluoro-2-methyl-propyl)-3-methyl-1,3,4,9-tetrahydropyrido[3,4-b]indole] | + (estrogen receptor agonism having (i) at least 80% increase in the E2-normalized signal in the AP assay (agonist mode) and (ii) no more than 80% reduction in the E2-normalized signal in the AP assay (antagonist mode))
C[C@@H]1Cc2c([nH]c3ccccc23)[C@@H](c2cc3ccc(CN4CC(CF)C4)cc3[nH]2)N1CC(C)(C)F [Compound I-56, (1R,3R)-1-[6-[[3-(fluoromethyl)azetidin-1-yl]methyl]-1H-indol-2-yl]-2-(2-fluoro-2-methyl-propyl)-3-methyl-1,3,4,9-tetrahydropyrido[3,4-b]indole] | + (estrogen receptor agonism having (i) at least 80% increase in the E2-normalized signal in the AP assay (agonist mode) and (ii) no more than 80% reduction in the E2-normalized signal in the AP assay (antagonist mode))
C[C@@H]1Cc2c([nH]c3ccccc23)[C@@H](c2ccc3oc(CN4CC(CF)C4)cc3c2)N1CC(C)(C)F [Compound I-57, (1R,3R)-1-[2-[[3-(fluoromethyl)azetidin-1-yl]methyl]benzofuran-5-yl]-2-(2-fluoro-2-methyl-propyl)-3-methyl-1,3,4,9-tetrahydropyrido[3,4-b]indole] | +++ (estrogen receptor antagonism (i) with pIC50 greater than 7.5 and at least a 10% reduction in the E2-normalized signal in the AP assay (antagonist mode); and (ii) no more than 10% increase in E2-normalized signal in the AP assay (agonist mode))
C[C@@H]1Cc2c([nH]c3ccccc23)[C@@H](c2ccc3oc(CN4CCC45CC(F)(F)C5)cc3c2)N1CC(C)(C)F [Compound I-58, (1R,3R)-1-[2-[(6,6-difluoro-1-azaspiro[3.3]heptan-1-yl)methyl]benzofuran-5-yl]-2-(2-fluoro-2-methyl-propyl)-3-methyl-1,3,4,9-tetrahydropyrido[3,4-b]indole] | + (estrogen receptor agonism having (i) at least 80% increase in the E2-normalized signal in the AP assay (agonist mode) and (ii) no more than 80% reduction in the E2-normalized signal in the AP assay (antagonist mode))
CC1CN(Cc2cnc3[nH]cc([C@@H]4c5[nH]c6ccccc6c5C[C@@H](C)N4CC(C)(C)F)c3c2)C1 [Compound I-59, (1R,3R)-2-(2-fluoro-2-methyl-propyl)-3-methyl-1-[5-[(3-methylazetidin-1-yl)methyl]-1H-pyrrolo[2,3-b]pyridin-3-yl]-1,3,4,9-tetrahydropyrido[3,4-b]indole] | + (estrogen receptor agonism having (i) at least 80% increase in the E2-normalized signal in the AP assay (agonist mode) and (ii) no more than 80% reduction in the E2-normalized signal in the AP assay (antagonist mode))
C[C@@H]1Cc2c([nH]c3ccccc23)[C@@H](c2c[nH]c3ncc(CN4CC(CF)C4)cc23)N1CC(C)(C)F [Compound I-60, (1R,3R)-1-[5-[[3-(fluoromethyl)azetidin-1-yl]methyl]-1H-pyrrolo[2,3-b]pyridin-3-yl]-2-(2-fluoro-2-methyl-propyl)-3-methyl-1,3,4,9-tetrahydropyrido[3,4-b]indole] | + (estrogen receptor agonism having (i) at least 80% increase in the E2-normalized signal in the AP assay (agonist mode) and (ii) no more than 80% reduction in the E2-normalized signal in the AP assay (antagonist mode))
C[C@@H]1Cc2c([nH]c3ccccc23)[C@@H](c2c[nH]c3ncc(CN4CC5CC5C4)cc23)N1CC(C)(C)F (stereo partly drawn) [Compound I-61, (1R,3R)-1-[5-(3-azabicyclo[3.1.0]hexan-3-ylmethyl)-1H-pyrrolo[2,3-b]pyridin-3-yl]-2-(2-fluoro-2-methyl-propyl)-3-methyl-1,3,4,9-tetrahydropyrido[3,4-b]indole] | + (estrogen receptor agonism having (i) at least 80% increase in the E2-normalized signal in the AP assay (agonist mode) and (ii) no more than 80% reduction in the E2-normalized signal in the AP assay (antagonist mode))
CC1CN(Cc2cc3cc([C@@H]4c5[nH]c6ccccc6c5C[C@@H](C)N4CC(C)(C)F)sc3[nH]2)C1 [Compound I-62, 2-[(1S,3R)-2-(2-fluoro-2-methyl-propyl)-3-methyl-1,3,4,9-tetrahydropyrido[3,4-b]indol-1-yl]-5-[(3-methylazetidin-1-yl)methyl]-6H-thieno[2,3-b]pyrrole] | ++ (estrogen receptor antagonism having (i) between 10% and 80% increase in the E2-normalized signal in the AP assay (agonist mode) and (ii) between 10% and 80% reduction in the E2-normalized signal in the AP assay (antagonist mode))
C[C@@H]1Cc2c([nH]c3ccccc23)[C@@H](c2cc3cc(CN4CC(CF)C4)[nH]c3s2)N1CC(C)(C)F [Compound I-63, 5-[[3-(fluoromethyl)azetidin-1-yl]methyl]-2-[(1S,3R)-2-(2-fluoro-2-methyl-propyl)-3-methyl-1,3,4,9-tetrahydropyrido[3,4-b]indol-1-yl]-6H-thieno[2,3-b]pyrrole] | ++ (estrogen receptor antagonism having (i) between 10% and 80% increase in the E2-normalized signal in the AP assay (agonist mode) and (ii) between 10% and 80% reduction in the E2-normalized signal in the AP assay (antagonist mode))
C[C@@H]1Cc2c([nH]c3ccccc23)[C@@H](c2cc3[nH]c(CN4CC(CF)C4)cc3s2)N1CC(C)(C)F [Compound I-64, 5-[[3-(fluoromethyl)azetidin-1-yl]methyl]-2-[(1S,3R)-2-(2-fluoro-2-methyl-propyl)-3-methyl-1,3,4,9-tetrahydropyrido[3,4-b]indol-1-yl]-4H-thieno[3,2-b]pyrrole] | ++ (estrogen receptor antagonism having (i) between 10% and 80% increase in the E2-normalized signal in the AP assay (agonist mode) and (ii) between 10% and 80% reduction in the E2-normalized signal in the AP assay (antagonist mode))
